Reference: patent US20250084056A1, “SUBSTITUTED OXOISOINDOLINYL PIPERIDINE-2,6-DIONE COMPOUNDS” (BRISTOL-MYERS SQUIBB COMPANY, priority 2023, published 2025)

Assays:
Format in all cases: cell-based
[1] = target: Cyclin E1 (Homo sapiens, UniProt P24864+Q96SW2); assay: Cyclin E1 Cellular Degradation Assay (MSD); parameters: endogenous in cells; host or cells: OVCAR3; conditions: for DC50 / Dmax: Cyclin E1 cellular degradation; for Dmax: maximum degradation; for Ratio of GSPT1 DC50/Cyclin E1 DC50: selectivity for degradation of Cyclin E1 over GSPT1
Chain of Cyclin E1 (P24864 whole entry): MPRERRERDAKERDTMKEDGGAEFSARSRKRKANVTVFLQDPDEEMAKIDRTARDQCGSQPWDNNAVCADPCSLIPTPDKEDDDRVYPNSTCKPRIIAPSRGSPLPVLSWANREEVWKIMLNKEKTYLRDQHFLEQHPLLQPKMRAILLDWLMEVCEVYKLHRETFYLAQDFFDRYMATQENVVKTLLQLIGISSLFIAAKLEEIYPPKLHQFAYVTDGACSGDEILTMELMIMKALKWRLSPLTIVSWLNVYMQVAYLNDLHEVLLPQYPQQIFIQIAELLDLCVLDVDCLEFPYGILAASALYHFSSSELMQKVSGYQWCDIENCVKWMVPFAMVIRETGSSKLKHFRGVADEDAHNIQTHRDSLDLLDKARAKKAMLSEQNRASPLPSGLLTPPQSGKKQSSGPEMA
Chain of Cyclin E1 (Q96SW2 whole entry): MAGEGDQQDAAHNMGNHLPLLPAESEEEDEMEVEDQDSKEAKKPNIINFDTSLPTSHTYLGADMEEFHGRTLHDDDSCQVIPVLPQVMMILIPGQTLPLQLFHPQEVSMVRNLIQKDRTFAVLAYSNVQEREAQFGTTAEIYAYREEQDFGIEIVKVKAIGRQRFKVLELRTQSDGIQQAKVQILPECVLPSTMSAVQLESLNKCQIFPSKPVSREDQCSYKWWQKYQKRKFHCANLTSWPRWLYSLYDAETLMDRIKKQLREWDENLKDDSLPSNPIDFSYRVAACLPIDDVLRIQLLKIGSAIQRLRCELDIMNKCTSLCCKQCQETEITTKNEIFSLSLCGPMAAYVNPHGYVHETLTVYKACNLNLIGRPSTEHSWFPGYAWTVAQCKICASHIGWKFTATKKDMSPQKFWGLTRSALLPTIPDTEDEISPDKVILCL
Chain of Cyclin E1 (Q16531 whole entry partner): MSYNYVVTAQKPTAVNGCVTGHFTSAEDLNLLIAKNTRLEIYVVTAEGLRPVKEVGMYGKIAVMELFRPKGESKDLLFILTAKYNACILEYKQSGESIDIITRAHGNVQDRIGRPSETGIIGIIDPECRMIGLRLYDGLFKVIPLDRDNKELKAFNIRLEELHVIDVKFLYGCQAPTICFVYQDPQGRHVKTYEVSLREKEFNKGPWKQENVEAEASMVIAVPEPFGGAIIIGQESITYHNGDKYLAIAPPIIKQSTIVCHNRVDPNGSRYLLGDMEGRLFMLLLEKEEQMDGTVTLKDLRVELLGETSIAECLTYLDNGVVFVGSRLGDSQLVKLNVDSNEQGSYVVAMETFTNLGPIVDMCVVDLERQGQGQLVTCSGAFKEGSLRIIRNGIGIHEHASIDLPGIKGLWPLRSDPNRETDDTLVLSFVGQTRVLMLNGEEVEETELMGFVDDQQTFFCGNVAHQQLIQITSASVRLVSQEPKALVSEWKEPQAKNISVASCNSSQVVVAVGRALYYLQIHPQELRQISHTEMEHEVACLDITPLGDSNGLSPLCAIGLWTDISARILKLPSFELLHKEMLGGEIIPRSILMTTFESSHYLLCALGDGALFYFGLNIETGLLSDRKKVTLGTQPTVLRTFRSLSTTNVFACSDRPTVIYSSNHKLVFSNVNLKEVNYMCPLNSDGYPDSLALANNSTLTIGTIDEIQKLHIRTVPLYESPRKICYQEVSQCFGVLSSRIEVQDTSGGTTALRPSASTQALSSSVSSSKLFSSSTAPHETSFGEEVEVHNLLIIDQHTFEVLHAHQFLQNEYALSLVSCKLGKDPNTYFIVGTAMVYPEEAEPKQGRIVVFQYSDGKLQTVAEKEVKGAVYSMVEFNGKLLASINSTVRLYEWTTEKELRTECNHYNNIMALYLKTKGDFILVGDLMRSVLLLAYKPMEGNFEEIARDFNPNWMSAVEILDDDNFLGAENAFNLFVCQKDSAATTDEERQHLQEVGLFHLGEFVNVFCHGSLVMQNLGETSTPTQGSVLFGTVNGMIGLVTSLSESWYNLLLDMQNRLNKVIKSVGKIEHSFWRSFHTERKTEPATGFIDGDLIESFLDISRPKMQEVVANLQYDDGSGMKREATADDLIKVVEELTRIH
Summary of the method: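 Cyclin E1 remaining after 24 h compound exposure of OVCAR3 cells was quantified in lysates by electrochemiluminescent MSD sandwich assay. DC50 (50% response concentration) and Dmax (maximum response) were calculated, with 110% response set by a reference compound at […].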

[2] = target: GSPT1 (Homo sapiens, UniProt P15170+Q96SW2); assay: GSPT1 Cellular Degradation Assay (DF15-GSPT1-ePL); parameters: expressed in transfected cells; conditions: DF15-GSPT1-ePL cells, 20 hours
Chain of GSPT1 (P15170 whole entry, the tested form may be a part): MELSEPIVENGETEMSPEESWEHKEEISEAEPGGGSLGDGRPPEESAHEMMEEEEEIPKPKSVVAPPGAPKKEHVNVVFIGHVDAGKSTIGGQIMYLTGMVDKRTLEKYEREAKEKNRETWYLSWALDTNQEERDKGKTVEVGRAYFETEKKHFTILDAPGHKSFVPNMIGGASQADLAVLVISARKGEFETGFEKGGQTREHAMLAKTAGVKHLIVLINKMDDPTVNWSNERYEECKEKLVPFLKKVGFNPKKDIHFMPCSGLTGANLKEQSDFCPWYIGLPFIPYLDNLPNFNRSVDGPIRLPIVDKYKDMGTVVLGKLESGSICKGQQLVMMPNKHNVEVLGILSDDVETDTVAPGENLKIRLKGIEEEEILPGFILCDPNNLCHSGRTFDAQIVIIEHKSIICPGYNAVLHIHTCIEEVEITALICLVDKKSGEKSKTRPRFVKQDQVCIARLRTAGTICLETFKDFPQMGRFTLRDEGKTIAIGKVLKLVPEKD
Chain of GSPT1 (Q96SW2 whole entry, the tested form may be a part): as the sequence (Q96SW2 whole entry) above
Chain of GSPT1 (Q16531 whole entry partner, the tested form may be a part): as the sequence (Q16531 whole entry partner) above
Summary of the method: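 DC50 and Dmax were derived from chemiluminescence, with 75% response set by the reference compound at […]. Readout was ePL enzyme-fragment complementation in a DF15 line expressing chimeric GSPT1. Cells were exposed to compound for 20 h at 37 °C in RPMI 1640 with 10% FBS, cooled 30 min, then lysed with substrate for 60 min.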

[3] = system: Phospho-Rb (Ser807/811); assay: Phospho-Retinoblastoma (pRB) Cellular Assay; conditions: Homo sapiens, OVCAR-3, NIH OVCAR3 cells, 24 hours; for IC50: concentration giving 50% response; for Emax: maximum response, reference compound at 10 μM = 100%, read-out: pRB Ymax
Summary of the method: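 Phospho-Rb (Ser807/811) kit read-out on EnVision after lysis (≥4 h, room temperature, dark) of OVCAR3 cells exposed to compound dilutions for 24 h. IC50 and maximum response Ymax are relative to a 10 μM reference compound defining 100%.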

Compound | DC50 [1] [nM] | Dmax [1] [%] | Ratio of GSPT1 DC50/Cyclin E1 DC50 [1] | DC50 [2] [nM] | Dmax [2] [%] | IC50 [3] [nM] | Emax [3] [%]
O=C1CCC(N2Cc3ccc(COC(=O)Nc4ccc(Oc5ccc(F)cc5F)cc4F)c(O[C@@H]4CCCOC4)c3C2=O)C(=O)N1 (stereo partly drawn) [Example 148, [2-(2,6-dioxopiperidin-3-yl)-4-[(3R)-oxan-3-yloxy]-3-oxo-2,3-dihydro-1H-isoindol-5-yl]methyl N-[4-(2,4-difluorophenoxy)-2-fluorophenyl]carbamate] | 33 | 110 | >423 | > 14000 | 10 | 75 | 136
O=C1CCC(N2Cc3ccc(COC(=O)Nc4ccc(Oc5cc(F)cc(F)c5)cc4F)c(O[C@@H]4CCCOC4)c3C2=O)C(=O)N1 (stereo partly drawn) [Example 149, [2-(2,6-dioxopiperidin-3-yl)-4-[(3R)-oxan-3-yloxy]-3-oxo-2,3-dihydro-1H-isoindol-5-yl]methyl N-[4-(3,5-difluorophenoxy)-2-fluorophenyl]carbamate] | 67 | 109 | >209 | > 14000 | 15 | 71 | 144
O=C1CCC(N2Cc3ccc(COC(=O)Nc4ccc(Oc5cc(F)c(F)c(F)c5)cc4F)c(O[C@@H]4CCCOC4)c3C2=O)C(=O)N1 (stereo partly drawn) [Example 150, [2-(2,6-dioxopiperidin-3-yl)-4-[(3R)-oxan-3-yloxy]-3-oxo-2,3-dihydro-1H-isoindol-5-yl]methyl N-[2-fluoro-4-(3,4,5-trifluorophenoxy)phenyl]carbamate] | 182 | 100 | >77 | > 14000 | 0 | 96 | 137
O=C1CCC(N2Cc3ccc(COC(=O)Nc4ccc(Oc5ccc(F)c(F)c5)cc4)c(OC4CCCC4)c3C2=O)C(=O)N1 (stereo not shown) [Example 151, [4-(cyclopentyloxy)-2-(2,6-dioxopiperidin-3-yl)-3-oxo-2,3-dihydro-1H-isoindol-5-yl]methyl N-[4-(3,4-difluorophenoxy)phenyl]carbamate] | 71 | 108 | >196 | > 14000 | 10 | 31 | 113
O=C1CCC(N2Cc3ccc(COC(=O)Nc4ccc(Oc5ccc(F)c(F)c5)cc4)c(O[C@H]4CCOC4)c3C2=O)C(=O)N1 (stereo partly drawn) [Example 152, [2-(2,6-dioxopiperidin-3-yl)-3-oxo-4-[(3S)-oxolan-3-yloxy]-2,3-dihydro-1H-isoindol-5-yl]methyl N-[4-(3,4-difluorophenoxy)phenyl]carbamate] | 152 | 108 | >92 | > 14000 | 32 | 152 | 120
O=C1CCC(N2Cc3ccc(COC(=O)Nc4ccc(Oc5ccc(F)c(F)c5)cc4)c(O[C@@H]4CCOC4)c3C2=O)C(=O)N1 (stereo partly drawn) [Example 153, [2-(2,6-dioxopiperidin-3-yl)-3-oxo-4-[(3R)-oxolan-3-yloxy]-2,3-dihydro-1H-isoindol-5-yl]methyl N-[4-(3,4-difluorophenoxy)phenyl]carbamate] | 84 | 107 | >166 | > 14000 | 19 | 37 | 124
O=C1CCC(N2Cc3ccc(COC(=O)Nc4ccc(Oc5ccc(F)c(F)c5)cc4F)c(O[C@@H]4CCOC4)c3C2=O)C(=O)N1 (stereo partly drawn) [Example 154, [2-(2,6-dioxopiperidin-3-yl)-3-oxo-4-[(3R)-oxolan-3-yloxy]-2,3-dihydro-1H-isoindol-5-yl]methyl N-[4-(3,4-difluorophenoxy)-2-fluorophenyl]carbamate] | 147 | 100 | >95 | > 14000 | 26 | 225 | 123
CC(C)(O)COc1c(COC(=O)Nc2ccc(Oc3ccc(F)c(F)c3)cc2)ccc2c1C(=O)N(C1CCC(=O)NC1=O)C2 (stereo not shown) [Example 159, [2-(2,6-dioxopiperidin-3-yl)-4-(2-hydroxy-2-methylpropoxy)-3-oxo-2,3-dihydro-1H-isoindol-5-yl]methyl N-[4-(3,4-difluorophenoxy)phenyl]carbamate] | 15 | 101 | >937 | > 14000 | 21 | 47 | 145
CC(C)(O)COc1c(COC(=O)Nc2ccc(Oc3ccccc3)cc2)ccc2c1C(=O)N(C1CCC(=O)NC1=O)C2 (stereo not shown) [Example 160, [2-(2,6-dioxopiperidin-3-yl)-4-(2-hydroxy-2-methylpropoxy)-3-oxo-2,3-dihydro-1H-isoindol-5-yl]methyl N-(4-phenoxyphenyl)carbamate] | 23 | 98 | >615 | > 14000 | 16 | 131 | 145
CC(C)(O)COc1c(COC(=O)Nc2ccc(Oc3ccc(F)c(F)c3)cc2F)ccc2c1C(=O)N(C1CCC(=O)NC1=O)C2 (stereo not shown) [Example 161, [2-(2,6-dioxopiperidin-3-yl)-4-(2-hydroxy-2-methylpropoxy)-3-oxo-2,3-dihydro-1H-isoindol-5-yl]methyl N-[4-(3,4-difluorophenoxy)-2-fluorophenyl]carbamate] | 62 | 102 | >225 | > 14000 | 10 | 37 | 129
CC(C)(O)COc1c(COC(=O)Nc2ccc(Oc3ccc(F)cc3)cc2F)ccc2c1C(=O)N(C1CCC(=O)NC1=O)C2 (stereo not shown) [Example 162, [2-(2,6-dioxopiperidin-3-yl)-4-(2-hydroxy-2-methylpropoxy)-3-oxo-2,3-dihydro-1H-isoindol-5-yl]methyl N-[2-fluoro-4-(4-fluorophenoxy)phenyl]carbamate] | 27 | 107 | >521 | > 14000 | 8 | 24 | 133
CC(C)(O)COc1c(COC(=O)Nc2ccc(Oc3ccc(F)cc3F)cc2F)ccc2c1C(=O)N(C1CCC(=O)NC1=O)C2 (stereo not shown) [Example 163, [2-(2,6-dioxopiperidin-3-yl)-4-(2-hydroxy-2-methylpropoxy)-3-oxo-2,3-dihydro-1H-isoindol-5-yl]methyl N-[4-(2,4-difluorophenoxy)-2-fluorophenyl]carbamate] | 15 | 110 | >921 | > 14000 | 7 | 112 | 137
CC(C)(O)COc1c(COC(=O)Nc2ccc(Oc3cc(F)cc(F)c3)cc2F)ccc2c1C(=O)N(C1CCC(=O)NC1=O)C2 (stereo not shown) [Example 164, [2-(2,6-dioxopiperidin-3-yl)-4-(2-hydroxy-2-methylpropoxy)-3-oxo-2,3-dihydro-1H-isoindol-5-yl]methyl N-[4-(3,5-difluorophenoxy)-2-fluorophenyl]carbamate] | 75 | 118 | >187 | > 14000 | 2 | 25 | 142
CC(C)(O)COc1c(COC(=O)Nc2ccc(Oc3cc(F)c(F)c(F)c3)cc2F)ccc2c1C(=O)N(C1CCC(=O)NC1=O)C2 (stereo not shown) [Example 165, [2-(2,6-dioxopiperidin-3-yl)-4-(2-hydroxy-2-methylpropoxy)-3-oxo-2,3-dihydro-1H-isoindol-5-yl]methyl N-[2-fluoro-4-(3,4,5-trifluorophenoxy)phenyl]carbamate] | 42 | 107 | >332 | > 14000 | 10 | 28 | 133
O=C1CCC(N2Cc3ccc(COC(=O)Nc4ccc(Oc5ccc(F)c(F)c5)cc4)c(O[C@H]4CC[C@H](O)CC4)c3C2=O)C(=O)N1 (stereo partly drawn) [Example 166, [2-(2,6-dioxopiperidin-3-yl)-3-oxo-4-{[(1R,4R)-4-hydroxycyclohexyl]oxy}-2,3-dihydro-1H-isoindol-5-yl]methyl N-[4-(3,4-difluorophenoxy)phenyl]carbamate] | 87 | 108 | >160 | > 14000 | 27 | 95 | 134
O=C1CCC(N2Cc3ccc(COC(=O)Nc4ccc(Oc5ccc(F)c(F)c5)cc4)c(O[C@H]4CC[C@@H](O)CC4)c3C2=O)C(=O)N1 (stereo partly drawn) [Example 167, [2-(2,6-dioxopiperidin-3-yl)-3-oxo-4-{[(1S,4S)-4-hydroxycyclohexyl]oxy}-2,3-dihydro-1H-isoindol-5-yl]methyl N-[4-(3,4-difluorophenoxy)phenyl]carbamate] | 13 | 111 | >1,042 | > 14000 | 6 | 8 | 148
